Measurements as given in paper PMC7464698, “Phenolic Composition and Skin-related Properties of the Aerial Parts Extract of Different Hemerocallis Cultivars” (Antioxidants, 2020).
In brackets after ≈: the same amount, converted by molar mass.

How the values were obtained:
[1] = target: T1, Porcine pancreatic elastase (Sus scrofa, UniProt P00772); experiment: N-Succinyl-Ala-Ala-Ala-p-nitroanilide hydrolysis, absorbance […] nm; assay type: biochemical; conditions: read-out: IC50 [μg/mL] / Elastase Inhibition (converted)
T1 construct: gene CELA1; commercial native enzyme from pancreas (Sigma-Aldrich); mature enzyme
T1 sequence (P00772 27-266): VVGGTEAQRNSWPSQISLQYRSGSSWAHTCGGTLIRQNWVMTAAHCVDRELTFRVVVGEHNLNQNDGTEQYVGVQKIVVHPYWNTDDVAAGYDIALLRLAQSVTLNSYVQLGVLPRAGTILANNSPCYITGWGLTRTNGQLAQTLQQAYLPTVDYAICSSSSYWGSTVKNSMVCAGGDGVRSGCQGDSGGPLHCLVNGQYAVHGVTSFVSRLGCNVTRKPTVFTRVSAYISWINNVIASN

[2] = target: T2, Collagenase from Clostridium histolyticum; experiment: FALGPA hydrolysis, absorbance […] nm; assay type: biochemical, Hathewaya histolytica; conditions: FALGPA 1 mM; Tricine 0.05 M pH 7.5, 0.4 M NaCl, 0.01 M CaCl2; 29 °C; 10 min preincubation; positive control
T2 construct: gene colG; commercial native enzyme preparation (Sigma-Aldrich); mixture of ColG and ColH not resolved

With O=C(O[C@@H]1Cc2c(O)cc(O)cc2O[C@@H]1c1cc(O)c(O)c(O)c1)c1cc(O)c(O)c(O)c1 [EGCG] the IC50 [1] was 136 µM and the “IC50 [μg/mL] / Collagenase Inhibition” value [2] was 34.9 ± 0.4 µg/mL (≈ 76.1 µM).
